The source made the active and inactive calls.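 The calls were made as follows: active = Compounds that kill half the cells at a concentration of 5 micromolar or below, from the fitted or estimated CC50; inactive = CC50 above 5 micromolar.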
The compounds below were run on Jurkat E6.1 viability, ATP luminescence, 48 h (assay: viability loss in Jurkat T cells – cell-based, ATP luminescence, 48 h, 60K MLSMR, cytotoxicity control, dose response (AID 464)).
Cc1nc2ccccc2n1CC(=O)NCc1ccccc1 was tested, and the CC50 was 5.34 µM (inactive).
CCCCNc1cc(C)nc(NCc2ccccc2)n1 was tested, and the CC50 was 10.5 µM (inactive).
COc1ccc(N=Cc2c(O)[nH]c3ccccc23)cc1OC was tested, and the CC50 was 11.3 µM (inactive).
In the case of c1ccc2c(c1)[nH]c1c(N3CCCC3)ncnc12, the CC50 was 13.3 µM (inactive).
Work on c1ccc2c(CCNc3ncnc4nc[nH]c34)c[nH]c2c1 yielded a CC50 of 3.85 µM.
Work on CCC(C)Oc1ccccc1C1CC(=O)NC2=C1C(=O)CCC2 (stereo not given) yielded a CC50 of 4.73 µM.
With CN1/C(=C/C(=O)c2nc(S(C)(=O)=O)ncc2Cl)C(C)(C)c2ccccc21 the CC50 was > 13 µM (inactive).
With COC(=O)c1ccc(NC(=O)c2ccc(N(C)S(C)(=O)=O)cc2)cc1 the CC50 was 11.9 µM (inactive).
CCN(CC)c1ccc(NC(=O)c2cc(OC)cc(OC)c2)c(C)c1 gave a CC50 of 1.11 µM.
In the case of Cn1c(=O)c2c(nc(NCc3ccco3)n2C/C=C/c2ccccc2)n(C)c1=O, the CC50 was 9.36 µM (inactive).
In the case of CC(C)C1N=C2c3ccccc3N=C(SCC(=O)c3ccc(O)c(O)c3)N2C1=O (stereo not given), the CC50 was 10.2 µM (inactive).
For CCn1c(=O)c(C(=O)Nc2nc3ccccc3[nH]2)c(O)c2ccccc21, the CC50 was 14.3 µM (inactive).
CCNc1nc2c(c(=O)n(C)c(=O)n2C)n1Cc1ccc(Cl)cc1 showed a CC50 of 4.09 µM.
For COc1ccc(-c2cc(N)n(S(=O)(=O)c3c(F)c(F)c(F)c(F)c3F)n2)cc1OC, the CC50 was 2.01 µM.
Compound Cc1cnc(C(=O)Nc2cccc3cccnc23)cn1 has a CC50 of 0.803 µM.
For CCOc1ccccc1NC(=O)Cn1nnc(C(=O)NCc2ccco2)c1N, the CC50 was 0.078 µM.
With Cc1cc(C(=O)Nc2sc3c(c2C#N)CCC3)no1 the CC50 was 6.7 µM (inactive).
CC(C)C(=O)Nc1ccc(C(=O)NCc2cccnc2)cc1 gave a CC50 of 3.87 µM.
COc1ccccc1-c1nnc2sc(-c3cc4ccccc4o3)nn12 was tested, and the CC50 was 0.214 µM.
With CC(Oc1ccc(Cl)cc1Cl)C(=O)Nc1ccncc1 (stereo not given) the CC50 was 7.07 µM (inactive).
Work on COc1cc(CN2CCN(c3cccc(Cl)c3)CC2)cc(OC)c1OC yielded a CC50 of 4.36 µM.
For CCCCn1c(CN2CCN(c3ccccc3)CC2)nc2c1c(=O)n(C)c(=O)n2C, the CC50 was 10.4 µM (inactive).
With Cc1nc2sccn2c1-c1csc(NCc2ccccc2)n1 the CC50 was 4.81 µM.
In the case of Cc1ccc(-n2c(O)c(C=Nc3ccccc3N)c(=O)[nH]c2=O)cc1C, the CC50 was > 13 µM (inactive).
CCc1ccc2nc(NC(=O)c3cc(C)on3)sc2c1 showed a CC50 of 3.71 µM.
With O=C(Nc1ccn(-c2ccccc2)n1)c1ccc(S(=O)(=O)N2CCCCCC2)cc1 the CC50 was 19.8 µM (inactive).
Compound Cc1nnc(Sc2nc(Sc3nnc(C)s3)nc(N3CCN(C)CC3)n2)s1 has a CC50 of 1.34 µM.
With Cc1noc(C)c1CSc1nc2ccccc2nc1NS(=O)(=O)c1ccc(Cl)cc1 the CC50 was 31.5 µM (inactive).
For CCCCN(CC)S(=O)(=O)c1ccc(C(=O)Nc2nnc(CSC)o2)cc1, the CC50 was 37.6 µM (inactive).
With CN1c2ccccc2C(C)(C)C12C=Cc1cc(O)ccc1O2 (stereo not given) the CC50 was 10.4 µM (inactive).
CN1Cc2cc(C(=O)c3cc(Cl)cc(CSc4ncccn4)c3O)cnc2NC1=O gave a CC50 of 0.212 µM.
CN(C)S(=O)(=O)c1ccc(C(=O)Nc2nc(-c3cccs3)cs2)cc1 was tested, and the CC50 was 21.1 µM (inactive).
Work on COc1ccccc1NC(=O)Cc1nn(C)c(=O)c2ccccc12 yielded a CC50 of 3.35 µM.
CCOC(=O)c1ccccc1NC(=O)Cn1c(-c2nonc2N)nc2ccccc21 gave a CC50 of 0.296 µM.
CCc1ccc(CNc2ccc(O)cc2)cc1 was tested, and the CC50 was > 40 µM (inactive).
Compound Cn1cc(/C=N/n2cnc3scc(-c4ccccc4)c3c2=O)c2ccccc21 has a CC50 of 1.1 µM.
CCOC(=O)CSC1=C(C#N)C(c2ccc(C)s2)CC(=O)N1 (stereo not given) showed a CC50 of 1.56 µM.
With CCOC(=O)N1CCC(NC(=O)c2ccc3c(c2)sc2nc(-c4cccc(OC)c4)cn23)CC1 the CC50 was 35.1 µM (inactive).
With C/C=C/COC(=O)c1[nH]c2c(c1C)C(=O)CC(c1ccco1)C2 (stereo not given) the CC50 was 0.196 µM.
In the case of O=C(Cc1cccs1)Nc1nc2c(s1)CCCC2, the CC50 was > 40 µM (inactive).
Compound Clc1ccc(Cn2ncc3c(NCc4ccco4)ncnc32)c(Cl)c1 has a CC50 of 3.8 µM.
For COc1ccc(C)cc1Nc1cc(C)nc2nc(C)nn12, the CC50 was 7.08 µM (inactive).
COc1ccccc1-n1nnnc1S(=O)(=O)Cc1ccc(Cl)cc1 gave a CC50 of 3.3 µM.
O=C(Oc1ccc2c(c1)OCO2)c1cc2c(s1)CCC2 was tested, and the CC50 was > 40 µM (inactive).
CCCc1ccc(-c2ccc(F)c(N)c2)nc1 was tested, and the CC50 was > 40 µM (inactive).
With COc1cc(C(=O)OCC(=O)c2cc(C)n(C)c2C)cc(OC)c1OC the CC50 was > 4.4 µM (inactive).
With Clc1ccc(-n2nnnc2Sc2ncnc3sccc23)cc1 the CC50 was > 13 µM (inactive).
In the case of CC(=O)c1cn(CC(=O)Nc2ccccc2)c2ccccc12, the CC50 was 12.6 µM (inactive).
With O=C(NCc1ccccc1)c1noc2c1CCCC2 the CC50 was 8.77 µM (inactive).
CCn1c(NC(=O)c2cccc(Cn3cc(Cl)cn3)c2)nc2ccccc21 was tested, and the CC50 was > 40 µM (inactive).
For CCCN1CCN(c2ncnc3c2nnn3Cc2ccccc2)CC1, the CC50 was 9.22 µM (inactive).
COc1ccc(C2NCc3ccc4c(c3-n3cccc32)OCO4)cc1O (stereo not given) was tested, and the CC50 was 0.999 µM.
N#CC1=C2SCC(O)(c3ccccc3)N2C(=O)CC1c1cccs1 (stereo not given) showed a CC50 of 0.361 µM.
Cc1cc(NC(=O)CSc2nc(-c3ccco3)cc(C(F)(F)F)n2)n(-c2ccccc2)n1 gave a CC50 of 4.28 µM.
COc1cccc(OCc2nc3ncc(Br)cc3[nH]2)c1 was tested, and the CC50 was 1.11 µM.
With COC(=O)Nc1ccc(S(=O)(=O)N2CCCc3ccccc32)cc1 the CC50 was 1.06 µM.
For C=CCN1C(=Nc2cccnc2)SCC1(O)c1ccc(C)cc1 (stereo not given), the CC50 was 17.9 µM (inactive).
For CCN(CC)S(=O)(=O)c1cccc(C(=O)Nc2nc3cc4c(cc3s2)OCCO4)c1, the CC50 was 12.8 µM (inactive).
CCC(=NC(C)c1ccccc1)c1c(O)n(C)c(=O)n(C)c1=O (stereo not given) was tested, and the CC50 was 11.3 µM (inactive).
CCOC(=O)C1CCN(CC(=O)Nc2c(C(=O)OC)[nH]c3ccc(Cl)cc23)CC1 was tested, and the CC50 was 31.2 µM (inactive).
In the case of Cc1cc(C)c2ccc(N)nc2c1O, the CC50 was 6.83 µM (inactive).
With C=CCn1c(O)c(C(C)=NCc2cc(OC)cc(OC)c2)c(=O)[nH]c1=O the CC50 was 7.66 µM (inactive).
Work on O=C(c1ccco1)N1CCN(C(=O)N2c3ccccc3Sc3ccccc32)CC1 yielded a CC50 of 0.099 µM.
Cc1ccc(S(=O)(=O)Nc2ccc3ncccc3c2)cc1 was tested, and the CC50 was 10.7 µM (inactive).
For On1onc2c3cc(-c4ccccc4)nc3ccc21, the CC50 was 3.9 µM.
With CS(=O)(=O)N1CCc2cc(S(=O)(=O)Nc3ccc4c(c3)OCCO4)ccc21 the CC50 was 29.1 µM (inactive).
With COc1ccc2c(c1)sc1nc(-c3ccccc3)cn12 the CC50 was 0.75 µM.
c1ccc(CNc2ncnc3c2cnn3-c2ccccc2)cc1 showed a CC50 of 3.54 µM.
Work on Cc1c(C(=O)OC2CCCC2)[nH]c2c1C(=O)CC(c1ccco1)C2 (stereo not given) yielded a CC50 of 0.167 µM.
C=CCOC(=O)c1[nH]c2c(c1C)C(=O)CC(c1ccco1)C2 (stereo not given) was tested, and the CC50 was 0.196 µM.
COCCOC(=O)c1[nH]c2c(c1C)C(=O)CC(c1ccco1)C2 (stereo not given) showed a CC50 of 0.945 µM.
In the case of COc1cc(C)c(Cl)cc1S(=O)(=O)NCc1ccncc1, the CC50 was 3.1 µM.
For CCN(C)c1ccc(/C=N\n2nnnc2N)cc1, the CC50 was 4.71 µM.
In the case of CCOC(=O)/C=C/S(=O)(=O)c1ccc(NC(C)=O)cc1, the CC50 was 3.21 µM.
For O=C(c1ccc2c(c1)ncn2C1CCCCC1)N1CCC2(CC1)OCCO2, the CC50 was 5.19 µM (inactive).
In the case of CC(C)C(=O)NC(c1ccco1)c1ccc2cccnc2c1O (stereo not given), the CC50 was 2.89 µM.
For Cc1onc(-c2ccccc2)c1C(=O)Nc1sc2c(c1C#N)CCC2, the CC50 was 15 µM (inactive).
With Cc1cc(NO)nc(-c2ccc(Br)cc2)n1 the CC50 was > 40 µM (inactive).
With CCOC(=O)c1ccc(NC(=O)c2ccc(CN3CCOCC3)cc2)cc1 the CC50 was 5.13 µM (inactive).
Work on CCOC(=O)CS(=O)(=O)c1nc(-c2ccc(F)cc2)cc(C(F)(F)F)n1 yielded a CC50 of 3.81 µM.

Reference: PubChem BioAssay AID464 (The Scripps Research Institute Molecular Screening Center, 2006)
